Legend:
[1] = tested on: cardiomyocytes; experiment: ROS detection with DHE in cardiomyocytes; type: cell-based, mouse; conditions: 100 nM
Method: Changes in ROS levels in cultured primary cardiac myocytes after agonist stimulation were measured using the fluorogenic probe dihydroethidium (DHE, 5 μM, Molecular Probes), as previously described (Zimmerman e.g., 2004). DHE fluorescent images were acquired using confocal microscopy (Zeiss LSM510).
In order to validate the connection between AngII and ROS in this experimental model, isolated cardiomyocytes from WT and p47^−/− mice were treated with 100 nM AngII and monitored production of ROS by Imaging DHE, a fluorescent reporter for superoxide and hydrogen peroxide (FIG. 7C). Wild-type cardiomyocytes were incubated with fura-2 AM, a cell-permeant calcium indicator to observe changes in intracellular Ca^2+ ([Ca^2+]i).

[2] = tested on: oxidized CaMKII; experiment: Oxidized / phosphorylated CaMKII in hearts of treated mice (immunostaining, immunoblot); type: in vivo
Method: (§1) Mice were anesthetized with ketamine (87.5 mg/kg) and xylazine (12.5 mg/kg), and a small incision was made in the skin near the spine, approximately 1 cm above the hip. Minipumps containing saline or AngII (3 mg/kg/day) were inserted and the skin was sutured closed. Other mice were given, daily injections of Iso (30 mg/kg/day, intraperitoneal) for 7 days. Animals were then sacrificed and the heart was removed, fixed, and embedded in paraffin. Transverse heart sections of 5 μm thickness were made. To confirm the identity of cardiomyocytes, heart sections were immunolabeled with alpha-actinin Ig (cardiomyocyte-specific marker). Only sections with >90% cardiomyocytes were used in experiments. (See FIG. 13.) Paraffin was removed, and TUNEL staining was performed using In Situ cell death detection kits, TMR Red (Roche). Nuclei were co-stained with DAPI. To determine percent of TUNEL positive nuclei, whole heart sections were divided into four quadrants and one image was taken at random within each quadrant. In the case of sections from post-MI mice, an average of 50% of the heart quadrants were from portions of the heart adjacent to the MI. An investigator blinded to the identity and treatment of the mice counted the number of total and TUNEL positive cells in each image.
Other sections were treated with either a general CaMKII antibody or oxidized CaMKII antiserum. Nuclei were co-stained with DAPI. Identity of cardiomyocytes was confirmed by co-stain with an antibody against α-actinin. Images were quantified for relative staining intensity using Image J (NIH, USA). Each image was divided into four quadrants, and one rectangular area of equal size and shape was randomly placed within the cytosolic area of each quadrant, excluding DAPI-stained nuclei. Relative intensity of an image was judged to be the mean of the intensity measurements taken in each quadrant. Both the investigators and technical personnel assigned to immunostaining and quantification were blinded to the genetic identity and treatment of the mice in all studies.
To determine the role of CaMKII oxidation In apoptosis, mice were treated with saline, AngII, or isoproterenol (Iso) for one week, and transverse heart, sections from these mice were probed for the production of oxidized CaMKII in vivo. […] Total CaMKII immunoreactivity remained constant regardless of treatment. […] (See FIG. 6).
Homogenized hearts from mice treated with saline, AngII, or Iso, and whole heart lysates were analyzed by immunoblot for oxidized CaMKII.
Methionine oxidation is specifically reversed by MsrA (Weissbach e.g., 2002), so it was hypothesized that MsrA^−/− mice would show enhanced vulnerability to AngII-mediated CaMKII oxidation and apoptosis. In order to test this idea, MsrA^−/− and WT control mice were implanted with AngII or saline elating osmotic mini pumps. […] In order to test if CaMKII oxidation and apoptosis were regulated by NADPH oxidase and MsrA in the setting of myocardial infarction, MsrA^−/−, p47^−/−, and WT mice were subjected to myocardial infarction surgery. […] Myocardial infarction surgery was performed on a larger cohort of MsrA^−/− and WT control mice to determine if increased CaMKII oxidation and apoptosis in MsrA^−/− mice translated into poorer functional outcomes.
To test the specificity of this antiserum, Western blots of isolated CaMKII after no treatment, oxidation with H2O2, or phosphorylation with ATP were performed. CaMKII samples were probed for either total protein using a general CaMKII antibody or for oxidized CaMKII with anti-oxCaMKII antiserum. […] (See FIG. 14A). To test the efficacy of the antiserum in tissue staining, mice were treated with either saline or angiotensin II, an oxidant stimulating agent in cardiac tissue, and stained heart sections and performed immunofluorescent stains for oxidized CaMKII. […] (See FIG. 14B).

[3] = tested on: heart; parameters: species or system mice; conditions: mouse, in vivo
Method: as §1, with “image. […]” for “image.”

## angiotensin II (DRVYIHPF; Angiotensin-2; UniProt P01019 25-32, looked up) [AngII, oxidant stimulating agent in cardiac tissue]
[1]; WT cardiomyocytes
  ROS production: significant increase in ROS production
[1]; p47−/− cardiomyocytes
  ROS production (significant increase): not
[2]; MsrA−/− mice, vs saline MsrA−/− and control hearts
  CaMKII oxidation in hearts: significantly more CaMKII oxidation
[2]; WT mice
  Oxidized CaMKII in heart sections: more oxidized CaMKII than those treated with saline or Iso
[2]; WT mice, AngII 3 mg/kg/day 1 week
  Staining for T287-phosphorylated CaMKII in heart sections: increased staining
[2]; WT mice, listed as angiotensin II
  Oxidized CaMKII in heart sections: significant staining relative to the control
[2]; p47−/− mice
  Oxidized CaMKII in heart sections: did not show increased levels of oxidized CaMKII
  Staining for T287-phosphorylated CaMKII in heart sections: unaffected
[2]; vs saline or Iso
  Oxidized CaMKII in whole heart lysates (immunoblot): significantly increased oxidized CaMKII levels
[3]
  TUNEL staining of hearts: increased TUNEL staining

— US9090701B2, “Methods of detecting oxidized calcium/calmodulin dependent protein kinase II” (University of Iowa Research Foundation, priority 2008, dated 2015)
